Patent US20160296499A1, “Spiroindoline Antiparasitic Derivatives” (ZOETIS SERVICES LLC, priority 2013, published 2016)
pKi: −log10 of the molar value. Like-named read-outs stand apart in the source and are kept apart here.

Key:
Haemonchus contortus L3 = experiment: Haemonchus contortus, Larvae Stage 3 (HcL3) In Vitro Assay; conditions: Haemonchus contortus
[1] = system: Dirofilaria immitis microfilariae; experiment: Dirofilaria immitis, Microfilariae (DiMF) In Vitro Assay; conditions: Dirofilaria immitis
[2] = target: T1, bovine vesicular acetylcholine transporter (VAChT) (Bos taurus, UniProt E1BK36); experiment: Radioligand Binding Assay; conditions: Bovine binding Ki, CHO-K1 membranes with recombinant bovine VAChT, [3H]Compound X6 0.3 nM
T1 sequence (E1BK36 1-524): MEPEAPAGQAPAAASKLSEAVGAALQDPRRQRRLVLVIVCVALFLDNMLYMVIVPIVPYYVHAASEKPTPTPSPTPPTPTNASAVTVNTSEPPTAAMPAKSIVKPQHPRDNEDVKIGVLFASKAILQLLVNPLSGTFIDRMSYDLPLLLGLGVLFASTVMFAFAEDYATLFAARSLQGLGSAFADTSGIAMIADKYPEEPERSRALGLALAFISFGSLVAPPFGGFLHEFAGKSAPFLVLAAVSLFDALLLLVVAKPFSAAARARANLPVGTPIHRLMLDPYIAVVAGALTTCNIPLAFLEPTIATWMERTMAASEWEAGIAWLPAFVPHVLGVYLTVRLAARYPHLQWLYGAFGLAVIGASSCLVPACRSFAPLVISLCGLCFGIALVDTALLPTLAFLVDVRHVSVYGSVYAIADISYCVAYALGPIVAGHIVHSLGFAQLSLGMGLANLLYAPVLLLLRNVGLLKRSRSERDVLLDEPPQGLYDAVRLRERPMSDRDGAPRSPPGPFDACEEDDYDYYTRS

[3] = 96 h, read-out: HcL3 MEC, Minimal Effective Concentration whereby worm motility is inhibited by approximately 70%, 37° C., tested 0.001-100 μM
[4] = 72 h, read-out: Di MF, MEC, decrease in microfilariae motility by visual assessment, curve starting at 100 μM
[5] = 96 hours, 37° C., read-out: HcL3 MEC

Compound | minimal effective concentration (Haemonchus contortus L3; [3]) [µM] | minimal effective concentration [1, 4] [µM] | pKi [2] | minimal effective concentration (Haemonchus contortus L3; [5]) [µM] | minimal effective concentration ([1]; 72 hours, read-out: Di MF) [µM]
O=C(NCc1ccnc(Cl)c1)N1CC2(CCN(C/C=C/c3ccc(Cl)cc3)CC2)c2c1cccc2C(F)(F)F [Example 149, (E)-1′-(3-(4-chlorophenyl)allyl)-N-((2-chloropyridin-4-yl)methyl)-4-(trifluoromethyl)spiro[indoline-3,4′-piperidine]-1-carboxamide] | 5.1 | 8.1 | 6.40 |  | 
O=C(NCc1ccnc(Cl)c1)N1CC2(CCN(C/C=C/c3ccc(Cl)cc3)CC2)c2cc(OC(F)(F)F)c(Cl)cc21 [Example 150, (E)-6-chloro-1′-(3-(4-chlorophenyl)allyl)-N-((2-chloropyridin-4-yl)methyl)-5-(trifluoromethoxy)spiro[indoline-3,4′-piperidine]-1-carboxamide] | 5.7 | 18.2 | 6.53 |  | 
O=C(NCc1ccnc(Cl)c1)N1CC2(CCN(C/C=C/c3ccc(C(F)(F)F)cn3)CC2)c2cc(C(F)(F)F)ccc21 [Example 151, (E)-N-((2-chloropyridin-4-yl)methyl)-5-(trifluoromethyl)-1′-(3-(5-(trifluoromethyl)pyridin-2-yl)allyl)spiro[indoline-3,4′-piperidine]-1-carboxamide] | 5.7 | 4.3 | 6.29 |  | 
O=C(NCc1ccnc(Cl)c1)N1CC2(CCN(C/C=C/c3ccc(C(F)(F)F)cc3)CC2)c2c1cccc2C(F)(F)F [Example 152, (E)-N-((2-chloropyridin-4-yl)methyl)-4-(trifluoromethyl)-1′-(3-(4-(trifluoromethyl)phenyl)allyl)spiro[indoline-3,4′-piperidine]-1-carboxamide] | 5.7 | 4.4 | 5.88 |  | 
O=C(NCc1ccnc(Cl)c1)N1CC2(CCN(C/C=C/c3ccc(F)cc3)CC2)c2c1cccc2C(F)(F)F [Example 153, (E)-N-((2-chloropyridin-4-yl)methyl)-1′-(3-(4-fluorophenyl)allyl)-4-(trifluoromethyl)spiro[indoline-3,4′-piperidine]-1-carboxamide] | 5.7 | 7.6 | 6.66 |  | 
O=C(NCc1ccnc(Cl)c1)N1CC2(CCN(C/C=C/c3ccc(F)cc3)CC2)c2cc(C(F)(F)F)ccc21 [Example 154, (E)-N-((2-chloropyridin-4-yl)methyl)-1′-(3-(4-fluorophenyl)allyl)-5-(trifluoromethyl)spiro[indoline-3,4′-piperidine]-1-carboxamide] |  |  | 6.55 | 6.6 | 2.8
Cc1c(F)ccc2c1C1(CCN(C/C=C/c3ccc(Cl)cc3)CC1)CN2C(=O)NCc1ccnc(Cl)c1 [Example 155, (E)-1′-(3-(4-chlorophenyl)allyl)-N-((2-chloropyridin-4-yl)methyl)-5-fluoro-4-methylspiro[indoline-3,4′-piperidine]-1-carboxamide] | 7.3 | 3.3 | 7.13 |  | 
O=C(NCc1ccnc(Cl)c1)N1CC2(CCN(C/C=C/c3ccc(Cl)cc3)CC2)c2c(Br)cccc21 [Example 156, (E)-4-bromo-1′-(3-(4-chlorophenyl)allyl)-N-((2-chloropyridin-4-yl)methyl)spiro[indoline-3,4′-piperidine]-1-carboxamide] | 7.8 | 5.7 | 7.15 |  | 
N#Cc1ccc(/C=C/CN2CCC3(CC2)CN(C(=O)NCc2ccnc(Cl)c2)c2ccc(F)c(Cl)c23)cc1 [Example 157, (E)-4-chloro-N-((2-chloropyridin-4-yl)methyl)-1′-(3-(4-cyanophenyl)allyl)-5-fluorospiro[indoline-3,4′-piperidine]-1-carboxamide] | 8.1 | 11 | 7.64 |  | 
O=C(NCc1ccnc(Cl)c1)N1CC2(CCN(C/C=C/c3ccc(F)cc3)CC2)c2c1ccc(F)c2Cl [Example 158, (E)-4-chloro-N-((2-chloropyridin-4-yl)methyl)-5-fluoro-1′-(3-(4-fluorophenyl)allyl)spiro[indoline-3,4′-piperidine]-1-carboxamide] |  |  | 7.26 | 9.9 | 4.3
O=C(NCc1ccnc(Cl)c1)N1CC2(CCN(C/C=C/c3ccc(Cl)cc3)CC2)c2c1ccc(OC(F)(F)F)c2Cl [Example 159, (E)-4-chloro-1′-(3-(4-chlorophenyl)allyl)-N-((2-chloropyridin-4-yl)methyl)-5-(trifluoromethoxy)spiro[indoline-3,4′-piperidine]-1-carboxamide] |  |  | 6.25 | 10 | 24
O=C(NCc1ccnc(Cl)c1)N1CC2(CCN(C/C=C/c3ccc(Cl)cc3)CC2)c2cc(C(F)(F)F)ccc21 [Example 160, (E)-1′-(3-(4-chlorophenyl)allyl)-N-((2-chloropyridin-4-yl)methyl)-5-(trifluoromethyl)spiro[indoline-3,4′-piperidine]-1-carboxamide] |  |  | 6.65 | 10 | 10
O=C(NCc1ccnc(Cl)c1)N1CC2(CCN(C/C=C/c3ccc(F)cc3)CC2)c2c(Cl)cc(Cl)cc21 [Example 161, (E)-4,6-dichloro-N-((2-chloropyridin-4-yl)methyl)-1′-(3-(4-fluorophenyl)allyl)spiro[indoline-3,4′-piperidine]-1-carboxamide] | 10 | 10 | 6.59 |  | 
CS(=O)(=O)c1ccc2c(c1)N(C(=O)NCc1ccnc(Cl)c1)CC21CCN(C/C=C/c2ccc(Cl)cc2)CC1 [Example 162, (E)-1′-(3-(4-chlorophenyl)allyl)-N-((2-chloropyridin-4-yl)methyl)-6-(methylsulfonyl)spiro[indoline-3,4′-piperidine]-1-carboxamide] | 10 | 10 | 7.63 |  | 
O=C(NCc1ccnc(Cl)c1)N1CC2(CCN(C/C=C/c3ccc(F)cc3)CC2)c2cc(OC(F)(F)F)ccc21 [Example 163, (E)-N-((2-chloropyridin-4-yl)methyl)-1′-(3-(4-fluorophenyl)allyl)-5-(trifluoromethoxy)spiro[indoline-3,4′-piperidine]-1-carboxamide] |  |  | 6.26 | 10.1 | 2.5
O=C(NCc1ccnc(Cl)c1)N1CC2(CCN(C/C=C/c3ccc(C(F)(F)F)cc3)CC2)c2c1ccc(F)c2Cl [Example 164, (E)-4-chloro-N-((2-chloropyridin-4-yl)methyl)-5-fluoro-1′-(3-(4-(trifluoromethyl)phenyl)allyl)spiro[indoline-3,4′-piperidine]-1-carboxamide] | 12.4 | 5.3 | 6.51 |  | 
N#Cc1cccc2c1C1(CCN(C/C=C/c3ccc(Cl)cc3)CC1)CN2C(=O)NCc1ccnc(Cl)c1 [Example 165, (E)-1′-(3-(4-chlorophenyl)allyl)-N-((2-chloropyridin-4-yl)methyl)-4-cyanospiro[indoline-3,4′-piperidine]-1-carboxamide] | 16.7 | 8.3 | 7.42 |  | 
N#Cc1c(F)ccc2c1C1(CCN(C/C=C/c3ccc(Cl)cc3)CC1)CN2C(=O)NCc1ccnc(Cl)c1 [Example 166, (E)-1′-(3-(4-chlorophenyl)allyl)-N-((2-chloropyridin-4-yl)methyl)-4-cyano-5-fluorospiro[indoline-3,4′-piperidine]-1-carboxamide] | 23.5 | 1.5 | 7.36 |  | 
COc1ccc2c(c1)C1(CCN(C/C=C/c3ccc(Cl)c(Cl)c3)CC1)CN2C(=O)NCc1ccnc(Cl)c1 [Example 167, (E)-N-((2-chloropyridin-4-yl)methyl)-1′-(3-(3,4-dichlorophenyl)allyl)-5-methoxyspiro[indoline-3,4′-piperidine]-1-carboxamide] |  |  | 6.74 | 6.9 | 33
COc1ccc(/C=C/CN2CCC3(CC2)CN(C(=O)NCc2ccnc(Cl)c2)c2ccc(C(F)(F)F)cc23)cc1 [Example 168, (E)-N-((2-chloropyridin-4-yl)methyl)-1′-(3-(4-methoxyphenyl)allyl)-5-(trifluoromethyl)spiro[indoline-3,4′-piperidine]-1-carboxamide] |  |  | 6.57 | 33 | 3.3
O=C(NCc1ccnc(Cl)c1)N1CC2(CCN(C/C=C/c3ccc(Cl)cc3)CC2)c2cc(S(F)(F)(F)(F)F)ccc21 [Example 169, (E)-1′-(3-(4-chlorophenyl)allyl)-N-((2-chloropyridin-4-yl)methyl)-5-(pentafluorosulfide)spiro[indoline-3,4′-piperidine]-1-carboxamide] | 47.8 | 3.3 | 6.33 |  | 
